Among the test systems are HOP-62 NSCLC; KM12 colon; MCF7 breast; NCI-H460 lung; RPMI-8226 leukemia; SF-268 CNS; SK-MEL-28 melanoma; SNB-75 CNS; TK-10 renal; K-562 leukemia.
What all share (experiment): NCI tumour cell line growth inhibition, 48 h

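Protocol summary: plate cells (96-well), add compound at 5 concentrations, incubate 48 h, interpolate endpoints linearly. GI50 = concentration required for 50% inhibition of growth. The concentration for full growth arrest is given as TGI.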

`N#Cc1ccc2c(c1)C(=O)c1c-2n(CCCN=[N+]=[N-])c(=O)c2cc([N+](=O)[O-])ccc12`: the GI50 with HOP-62 NSCLC was 15 µM; in the experiment on KM12 colon it was over 50 µM; with MCF7 breast, 1.35 µM; with NCI-H460 lung, 1.11 µM; with RPMI-8226 leukemia, 21.3 µM; with SF-268 CNS, 5.03 µM. The GI50 with SK-MEL-28 melanoma is over 50 µM; in the experiment with SNB-75 CNS, 17.4 µM; with TK-10 renal it was over 50 µM. Further, the TGI in the experiment with HOP-62 NSCLC, in the experiment with KM12 colon, in the experiment with MCF7 breast, with NCI-H460 lung, in the experiment on RPMI-8226 leukemia and with SF-268 CNS was over 50 µM in each case. Further, the TGI in the experiment on SK-MEL-28 melanoma, with SNB-75 CNS and in the experiment on TK-10 renal was over 50 µM in each case.
Consider `C=Cc1cnc([N+](=O)[O-])n1C`, for which the TGI in the experiment on HOP-62 NSCLC, with KM12 colon, in the experiment with MCF7 breast, in the experiment on NCI-H460 lung, in the experiment on RPMI-8226 leukemia and in the experiment with SF-268 CNS was over 100 µM throughout. Further, the TGI in the experiment on SK-MEL-28 melanoma and in the experiment with TK-10 renal was over 100 µM in each case.
Regarding `COc1cc(CNC(=O)CCSc2nc3ccccc3c(=O)n2Cc2cc(OC)c(OC)c(OC)c2)cc(OC)c1OC`, the GI50 in the experiment with HOP-62 NSCLC is 4.36 µM; with KM12 colon, 3.98 µM; with MCF7 breast it was 3.46 µM; in the experiment with NCI-H460 lung it was 4.19 µM; with RPMI-8226 leukemia, 4 µM; with SF-268 CNS it was 7.13 µM. The GI50 was 6.69 µM in the experiment on SK-MEL-28 melanoma, 2.06 µM with SNB-75 CNS and 11 µM in the experiment on TK-10 renal. Moreover, the TGI in the experiment on HOP-62 NSCLC was 28.7 µM; with KM12 colon, over 100 µM; in the experiment with MCF7 breast, over 100 µM; with NCI-H460 lung, 27.5 µM; with RPMI-8226 leukemia it was 67.2 µM; with SF-268 CNS, over 100 µM. Further, the TGI is over 100 µM in the experiment on SK-MEL-28 melanoma, 12.9 µM in the experiment with SNB-75 CNS and 44.4 µM in the experiment on TK-10 renal.
As for `O=C(c1ccccc1)c1ccccc1C(=O)c1ccccc1`, the GI50 is over 100 µM in the experiment with HOP-62 NSCLC; 41 µM in the experiment on K-562 leukemia; 36.2 µM in the experiment on KM12 colon; 1.76 µM in the experiment on MCF7 breast; 35.9 µM in the experiment with NCI-H460 lung; 63.4 µM in the experiment with SF-268 CNS. The figures for the GI50 in the experiment on SK-MEL-28 melanoma, with SNB-75 CNS and with TK-10 renal were 30.9 µM, 45.5 µM and 32.8 µM, respectively. Also, the TGI in the experiment on HOP-62 NSCLC is over 100 µM; with K-562 leukemia it was over 100 µM; in the experiment with KM12 colon, over 100 µM; in the experiment on MCF7 breast it was 10.9 µM; in the experiment with NCI-H460 lung it was over 100 µM; with SF-268 CNS, over 100 µM. Besides, the TGI in the experiment on SK-MEL-28 melanoma, in the experiment on SNB-75 CNS and in the experiment on TK-10 renal was over 100 µM each time.
Take `C(#Cc1ccccc1C#Cc1ccccn1)c1ccccn1`: the GI50 with HOP-62 NSCLC is 25.6 µM; in the experiment with K-562 leukemia it was 7.02 µM; in the experiment with KM12 colon, 11 µM; in the experiment with MCF7 breast, 14.3 µM; in the experiment with NCI-H460 lung, 23.1 µM; with SF-268 CNS, 17.7 µM. In addition, the values for the GI50 in the experiment on SK-MEL-28 melanoma, in the experiment on SNB-75 CNS and with TK-10 renal were 27.4 µM, 18.5 µM and 6.54 µM, respectively. For the same compound, the TGI is over 100 µM in the experiment on HOP-62 NSCLC; 27.1 µM in the experiment with K-562 leukemia; 22.9 µM in the experiment with KM12 colon; 38.2 µM in the experiment with MCF7 breast; 58.8 µM with NCI-H460 lung; 35.7 µM with SF-268 CNS. The results for the TGI with SK-MEL-28 melanoma, with SNB-75 CNS and in the experiment with TK-10 renal were 84 µM, 42.6 µM and 22.3 µM, respectively.
Take `Cc1ccc(S(=O)(=O)c2ccsc2N)cc1`: the GI50 in the experiment with HOP-62 NSCLC is over 100 µM; in the experiment with K-562 leukemia it was over 100 µM; in the experiment with KM12 colon it was over 100 µM; in the experiment on MCF7 breast it was over 100 µM; in the experiment with NCI-H460 lung, over 100 µM; in the experiment with RPMI-8226 leukemia it was 95.4 µM. For the same compound, the GI50 with SF-268 CNS was 97.7 µM; in the experiment with SK-MEL-28 melanoma, over 100 µM; in the experiment with TK-10 renal, over 100 µM. The TGI in the experiment on HOP-62 NSCLC, with K-562 leukemia, in the experiment with KM12 colon, with MCF7 breast, in the experiment on NCI-H460 lung and with RPMI-8226 leukemia was over 100 µM each time. In addition, the TGI in the experiment on SF-268 CNS, in the experiment with SK-MEL-28 melanoma and in the experiment on TK-10 renal was over 100 µM throughout.
`O=C1NC(O)CCN1C1CC(O)C(CO)O1` (stereo not given): the TGI in the experiment on HOP-62 NSCLC, with K-562 leukemia, in the experiment with KM12 colon, with MCF7 breast, in the experiment with NCI-H460 lung and in the experiment on RPMI-8226 leukemia was over 100 µM in each case. Besides, the TGI in the experiment with SF-268 CNS, with SK-MEL-28 melanoma and in the experiment on TK-10 renal was over 100 µM throughout.
As to `CC(=O)Nc1cc2cc(NS(=O)(=O)c3cc(C(F)(F)F)cc(C(F)(F)F)c3)ccc2oc1=O`, the TGI in the experiment on HOP-62 NSCLC, with K-562 leukemia, in the experiment with KM12 colon, with MCF7 breast, in the experiment on NCI-H460 lung and with RPMI-8226 leukemia was over 100 µM throughout. Also, the TGI with SF-268 CNS, with SK-MEL-28 melanoma and in the experiment with TK-10 renal was over 100 µM each time.
`Cc1cc(O)c2c(c1)C(=O)C(c1c(C)cc3c(c1O)C(=O)C1OC1C3=O)=CC2=O` (stereo not given): the TGI is 26.3 µM in the experiment with HOP-62 NSCLC; 28.8 µM in the experiment with KM12 colon; 12.1 µM with MCF7 breast; 25.8 µM in the experiment on NCI-H460 lung; 3.52 µM in the experiment on RPMI-8226 leukemia; 26.2 µM in the experiment on SF-268 CNS. In addition, the TGI in the experiment with SK-MEL-28 melanoma was determined as 5.53 µM; in the experiment on SNB-75 CNS it was 28.1 µM; with TK-10 renal, 3.36 µM.
